PubChem BioAssay AID330 (DTP/NCI, 2004)
Inconclusive results and toxic doses are left out.

System: P388 leukemia ip, CD2F1 mice, survival T/C
Test: NCI In Vivo Anticancer Drug Screen. Data for tumor model P388 Leukemia (intraperitoneal) in CD2F1 (CDF1) mice
Settings: endpoint: median survival time, higher = longer survival
Outline: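 Mice carrying the transplanted tumor received test compound or vehicle. Survival was recorded in each group, and the value is the treated-group measurement divided by that of the vehicle-treated control group.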

Cc1ccc(N=C(CC(C)C)C2C(=O)c3ccccc3C2=O)cc1
T/C (dose: 50.0 mg/kg/injection, schedule: Q01DX005 (ip), vehicle: Klucel (hydroxypropylcellulose) (HPC)): 100 % of control | T/C (dose: 100.0 mg/kg/injection, schedule: Q01DX005 (ip), vehicle: Klucel (hydroxypropylcellulose) (HPC)): 94 % of control | T/C (dose: 200.0 mg/kg/injection, schedule: Q01DX005 (ip), vehicle: Klucel (hydroxypropylcellulose) (HPC)): 99 % of control

O=C(Cl)CCc1cc(Cl)no1
T/C (dose: 3.13 mg/kg/injection, schedule: Q04DX003 (ip), vehicle: other): 109 % of control | T/C (dose: 6.25 mg/kg/injection, schedule: Q04DX003 (ip), vehicle: other): 97 % of control | T/C (dose: 12.5 mg/kg/injection, schedule: Q04DX003 (ip), vehicle: other): 100 % of control | T/C (dose: 25.0 mg/kg/injection, schedule: Q04DX003 (ip), vehicle: other): 103 % of control | T/C (dose: 50.0 mg/kg/injection, schedule: Q04DX003 (ip), vehicle: other): 107 % of control | T/C (dose: 100.0 mg/kg/injection, schedule: Q04DX003 (ip), vehicle: other): 107 % of control | T/C (dose: 200.0 mg/kg/injection, schedule: Q04DX003 (ip), vehicle: other): 100 % of control

COc1ccc(CC2C(=O)NC(C)C(=O)N(C)C3C(=O)N(C)C(Cc4ccc(O)c(c4)Oc4ccc(cc4)C3O)C(=O)NC(C)C(=O)NC(C)C(=O)N2C)cc1 (centres undefined)
T/C (dose: 0.03 mg/kg/injection, schedule: Q01DX009 (ip), vehicle: Klucel (hydroxypropylcellulose) (HPC)): 94 % of control | T/C (dose: 0.03 mg/kg/injection, schedule: Q01DX009 (ip), vehicle: saline + alcohol): 100 % of control | T/C (dose: 0.03 mg/kg/injection, schedule: Q03HX024 (ip), vehicle: saline + alcohol): 123 % of control | T/C (dose: 0.06 mg/kg/injection, schedule: Q01DX009 (ip), vehicle: Klucel (hydroxypropylcellulose) (HPC)): 102 % of control | T/C (dose: 0.06 mg/kg/injection, schedule: Q01DX009 (ip), vehicle: saline + alcohol): 106 % of control | T/C (dose: 0.06 mg/kg/injection, schedule: Q03HX008 (ip), vehicle: saline + alcohol): 118 % of control | T/C (dose: 0.06 mg/kg/injection, schedule: Q03HX016 (ip), vehicle: saline + alcohol): 122 % of control | T/C (dose: 0.12 mg/kg/injection, schedule: Q01DX009 (ip), vehicle: Klucel (hydroxypropylcellulose) (HPC)): 104 % of control | T/C (dose: 0.12 mg/kg/injection, schedule: Q01DX009 (ip), vehicle: saline + alcohol): 111 % of control | T/C (dose: 0.13 mg/kg/injection, schedule: Q03HX024 (ip), vehicle: other): 103 % of control | T/C (dose: 0.13 mg/kg/injection, schedule: Q03HX024 (ip), vehicle: saline + alcohol): 153 % of control | T/C (dose: 0.25 mg/kg/injection, schedule: Q01DX005 (ip), vehicle: saline): 116 % of control | T/C (dose: 0.25 mg/kg/injection, schedule: Q01DX005 (iv), vehicle: other): 100 % of control | T/C (dose: 0.25 mg/kg/injection, schedule: Q01DX005 (iv), vehicle: saline): 107 % of control | T/C (dose: 0.25 mg/kg/injection, schedule: Q01DX009 (ip), vehicle: Klucel (hydroxypropylcellulose) (HPC)): 113 % of control | T/C (dose: 0.25 mg/kg/injection, schedule: Q01DX009 (sc), vehicle: other): 95 % of control | T/C (dose: 0.25 mg/kg/injection, schedule: Q03HX008 (ip), vehicle: other): 120 % of control | T/C (dose: 0.25 mg/kg/injection, schedule: Q03HX016 (ip), vehicle: other): 100 % of control | T/C (dose: 0.25 mg/kg/injection, schedule: Q03HX024 (ip), vehicle: other): 91 % of control | T/C (dose: 0.25 mg/kg/injection, schedule: Q03HX024 (ip), vehicle: saline + alcohol): 157 % of control | T/C (dose: 0.5 mg/kg/injection, schedule: Q01DX005 (iv), vehicle: other): 98 % of control | T/C (dose: 0.5 mg/kg/injection, schedule: Q01DX005 (iv), vehicle: saline): 114 % of control | T/C (dose: 0.5 mg/kg/injection, schedule: Q01DX009 (ip), vehicle: clinical formulation): 157 % of control | T/C (dose: 0.5 mg/kg/injection, schedule: Q01DX009 (ip), vehicle: water): 154 % of control | T/C (dose: 0.5 mg/kg/injection, schedule: Q01DX009 (oral), vehicle: other): 98 % of control | T/C (dose: 0.5 mg/kg/injection, schedule: Q01DX009 (sc), vehicle: other): 99 % of control | T/C (dose: 0.5 mg/kg/injection, schedule: Q03HX016 (ip), vehicle: saline + alcohol): 150 % of control | T/C (dose: 0.5 mg/kg/injection, schedule: Q03HX024 (ip), vehicle: saline + alcohol): 172 % of control | T/C (dose: 1.0 mg/kg/injection, schedule: Q01DX001 (ip), vehicle: other): 122 % of control | T/C (dose: 1.0 mg/kg/injection, schedule: Q01DX001 (oral), vehicle: other): 103 % of control | T/C (dose: 1.0 mg/kg/injection, schedule: Q01DX005 (ip), vehicle: saline): 158 % of control | T/C (dose: 1.0 mg/kg/injection, schedule: Q01DX005 (iv), vehicle: other): 99 % of control | T/C (dose: 1.0 mg/kg/injection, schedule: Q01DX009 (ip), vehicle: Klucel (hydroxypropylcellulose) (HPC)): 113 % of control | T/C (dose: 1.0 mg/kg/injection, schedule: Q01DX009 (ip), vehicle: clinical formulation): 198 % of control | T/C (dose: 1.0 mg/kg/injection, schedule: Q01DX009 (ip), vehicle: other): 167 % of control | T/C (dose: 1.0 mg/kg/injection, schedule: Q01DX009 (ip), vehicle: saline + alcohol): 172 % of control | T/C (dose: 1.0 mg/kg/injection, schedule: Q01DX009 (ip), vehicle: water): 166 % of control | T/C (dose: 1.0 mg/kg/injection, schedule: Q01DX009 (oral), vehicle: other): 95 % of control | T/C (dose: 1.0 mg/kg/injection, schedule: Q01DX009 (sc), vehicle: other): 95 % of control | T/C (dose: 2.0 mg/kg/injection, schedule: Q01DX001 (oral), vehicle: other): 97 % of control | T/C (dose: 2.0 mg/kg/injection, schedule: Q01DX005 (ip), vehicle: other): 167 % of control | T/C (dose: 2.0 mg/kg/injection, schedule: Q01DX005 (ip), vehicle: saline): 166 % of control | T/C (dose: 2.0 mg/kg/injection, schedule: Q01DX009 (ip), vehicle: clinical formulation): 195 % of control | T/C (dose: 2.0 mg/kg/injection, schedule: Q01DX009 (ip), vehicle: other): 183 % of control | T/C (dose: 2.0 mg/kg/injection, schedule: Q01DX009 (ip), vehicle: saline + alcohol): 184 % of control | T/C (dose: 2.0 mg/kg/injection, schedule: Q01DX009 (ip), vehicle: water): 184 % of control | T/C (dose: 2.0 mg/kg/injection, schedule: Q01DX009 (oral), vehicle: other): 122 % of control | T/C (dose: 2.0 mg/kg/injection, schedule: Q04DX003 (ip), vehicle: other): 155 % of control | T/C (dose: 4.0 mg/kg/injection, schedule: Q01DX001 (oral), vehicle: other): 100 % of control | T/C (dose: 4.0 mg/kg/injection, schedule: Q01DX005 (ip), vehicle: other): 165 % of control | T/C (dose: 4.0 mg/kg/injection, schedule: Q01DX009 (ip), vehicle: Klucel (hydroxypropylcellulose) (HPC)): 116 % of control | T/C (dose: 4.0 mg/kg/injection, schedule: Q01DX009 (ip), vehicle: other): 94 % of control | T/C (dose: 4.0 mg/kg/injection, schedule: Q01DX009 (ip), vehicle: saline + alcohol): 103 % of control | T/C (dose: 4.0 mg/kg/injection, schedule: Q01DX009 (oral), vehicle: other): 122 % of control | T/C (dose: 4.0 mg/kg/injection, schedule: Q04DX003 (ip), vehicle: other): 155 % of control | T/C (dose: 4.0 mg/kg/injection, schedule: Q08DX002 (ip), vehicle: other): 152 % of control | T/C (dose: 8.0 mg/kg/injection, schedule: Q01DX001 (oral), vehicle: other): 104 % of control | T/C (dose: 8.0 mg/kg/injection, schedule: Q01DX009 (oral), vehicle: other): 92 % of control | T/C (dose: 8.0 mg/kg/injection, schedule: Q04DX003 (ip), vehicle: other): 163 % of control | T/C (dose: 16.0 mg/kg/injection, schedule: Q01DX001 (oral), vehicle: other): 95 % of control | T/C (dose: 500.0 micrograms/kg/injection, schedule: Q01DX009 (ip), vehicle: saline with Tween-80): 150 % of control | T/C (dose: 1000.0 micrograms/kg/injection, schedule: Q01DX009 (ip), vehicle: saline with Tween-80): 177 % of control | T/C (dose: 2000.0 micrograms/kg/injection, schedule: Q01DX009 (ip), vehicle: saline with Tween-80): 152 % of control

N=C1N=Nc2nc(C3(c4nc5n(c4O)C(=N)N=N5)Cc4ccccc4C3=O)c(O)n21 (centres undefined)
T/C (dose: 60.0 mg/kg/injection, schedule: Q01DX005 (ip), vehicle: saline): 96 % of control | T/C (dose: 120.0 mg/kg/injection, schedule: Q01DX005 (ip), vehicle: saline): 103 % of control | T/C (dose: 240.0 mg/kg/injection, schedule: Q01DX005 (ip), vehicle: saline): 108 % of control

Clc1ccc(CNc2ncnc3[nH]ncc23)cc1Cl
T/C (dose: 100.0 mg/kg/injection, schedule: Q04DX003 (ip), vehicle: saline with Tween-80): 104 % of control | T/C (dose: 200.0 mg/kg/injection, schedule: Q04DX003 (ip), vehicle: saline with Tween-80): 100 % of control | T/C (dose: 400.0 mg/kg/injection, schedule: Q04DX003 (ip), vehicle: saline with Tween-80): 95 % of control
